Data from patent US9499705B2, “Radically polymerizable photo-curable ink jet ink composition” (Seiko Epson Corporation, priority 2013, dated 2016).

Experiments:
[1] = Acid dissociation constant pKa of saturated aliphatic carboxylic acids; assay type: physicochemical; conditions: for pKa1: first acid dissociation constant; for pKa2: second acid dissociation constant
Text: The acid dissociation constant pKa1 of the saturated aliphatic carboxylic acid is preferably 4.0 or more, more preferably 4.0 to 4.5, still more preferably 4.1 to 4.5. If the saturated aliphatic carboxylic acid is divalent or more polyvalent, the second acid dissociation constant pKa2 is preferably 5.0 or more. The acid dissociation constant pKa can be measured by, for example, titration, absorptiometry, or capillary electrophoresis.

[2] = Redispersibility after long-time storage (rate of change in absorbance of agitated ink after one year); assay type: physicochemical; conditions: redispersing effect of the saturated aliphatic carboxylic acid in the ink
Protocol: Ink bags containing respective ink compositions were allowed to stand at room temperature (25° C.) with the rectangular face of the ink bag in a horizontal position for a year. […] Subsequently, the ink bag was turned upside down and was reciprocally moved 50 times in the same manner with the rectangular face of the ink gab in a horizontal position. After the ink composition in the ink bag was thus agitated, the ink composition was sampled from the upper side in the ink gab with the ink inlet facing up. Then, the absorbance of the sampled ink composition was measured with a spectrophotometer U-3300 (manufactured by Hitachi) and compared with the absorbance before the storage. […] As a larger amount of sediment settles, the density of the white pigment in the ink composition tends to be reduced, and accordingly the absorbance after storage is generally low.

SMILES: O=C(O)CCC(=O)O [Succinic acid]
- pKa1 [1]: 4
- pKa2 [1]: 5.24
- Redispersion [2]: Good

SMILES: O=C(O)CC(O)(CC(=O)O)C(=O)O [Citric acid]
- pKa1 [1]: 2.87
- pKa2 [1]: 4.35
- pKa3 ([1]; third acid dissociation constant): 5.69
- Redispersion [2]: Fair

SMILES: CCCCCCCCCCCCCCCC(=O)O [Palmitic acid]
- pKa1 [1]: 4.64
- Redispersion [2]: Good

SMILES: O=C(O)CCCCC(=O)O [Adipic acid]
- pKa1 [1]: 4.26
- pKa2 [1]: 5.03
- Redispersion [2]: Excellent
